Test results reported in patent US10219516B2, “Molecules having pesticidal utility, and intermediates, compositions, and processes, related thereto” (priority 2015, dated 2019).
Read-outs that look alike come from different tables or passages of the source.

Assays:
Format in all cases: in vivo
[1] = test system: Yellow Fever Mosquito (Aedes aegypti, AEDSAE); test: Bioassay on Yellow Fever Mosquito (YFM), 96-well plate larval assay; conditions: for YFM rating: Yellow Fever Mosquito, 96-well plate larval assay; for YFM (Biological Results, rating): Species YFM (Yellow Fever Mosquito)
Summary of the method: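 Each well was scored for mortality after 3 days at room temperature under a non-evaporative lid. Test molecules came from DMSO masters (4000 ppm stock) diluted with water/acetone 90:10 and dispensed into six replicate plates, which were then infested with roughly 1-day-old larvae in liver-powder water.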

[2] = test system: Cabbage Looper (Trichoplusia ni, TRIPNI); test: Bioassay on Cabbage Looper (CL), 128-well diet tray assay; conditions: Trichoplusia ni
Summary of the method: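 Percent mortality, averaged across eight replicate wells, was scored after five to seven days at 25° C. under a 14:10 light-dark cycle. Each well held one to five second instar larvae on artificial diet treated at 50 μg/cm^2 with compound from 90:10 acetone-water, allowed to dry before infestation.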

[3] = test system: Beet Armyworm (Spodoptera exigua, LAPHEG); test: Bioassay on Beet Armyworm (BAW), 128-well diet tray assay
Summary of the method: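 Test molecule dissolved in acetone-water 90:10 is applied at 50 μg/cm^2 onto artificial diet and allowed to dry. Second instar larvae, one to five per well, are then added, and trays are vented and kept at 25° C. for five to seven days before mortality is scored.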

[4] = Cabbage Looper, 128-well diet tray assay, read-out: CL rating
[5] = Beet Armyworm, 128-well diet tray assay, read-out: BAW rating
[6] = Species CL (Cabbage Looper), read-out: CL (Biological Results, rating)
[7] = Species BAW (Beet Armyworm), read-out: BAW (Biological Results, rating)

| Compound | YFM rating [1] | pest or weed control at 50 µg/cm2 [2, 4] | pest or weed control at 50 µg/cm2 [3, 5] | YFM (Biological Results, rating) [1] | pest or weed control at 50 µg/cm2 [2, 6] | pest or weed control at 50 µg/cm2 [3, 7] |
| --- | --- | --- | --- | --- | --- | --- |
| O=C(Nc1ccc(Cl)cn1)c1cc(NC(=O)[C@H]2[C@H](c3cc(Cl)cc(Cl)c3)C2(Cl)Cl)ccc1Cl (relative stereo) [PF141, trans-2-Chloro-N-(5-chloropyridin-2-yl)-5-(2,2-dichloro-3-(3,5-dichlorophenyl)cyclopropane-1-carboxamido)benzamide] | B (More than 0-Less than 80) | 50 to 100% | 50 to 100% | – | – | – |
| N#Cc1ccc(NC(=O)c2cc(NC(=O)[C@H]3[C@H](c4cc(Cl)cc(Cl)c4)C3(Cl)Cl)ccc2Cl)nc1 (relative stereo) [PF143, trans-2-Chloro-N-(5-cyanopyridin-2-yl)-5-(2,2-dichloro-3-(3,5-dichlorophenyl)cyclopropane-1-carboxamido)benzamide] | A (80-100) | 50 to 100% | 50 to 100% | – | – | – |
| CC(=O)Nc1ccc(NC(=O)c2cc(NC(=O)[C@H]3[C@H](c4cc(Cl)cc(Cl)c4)C3(Cl)Cl)ccc2Cl)c(C)c1 (relative stereo) [PF158, trans-N-(4-Acetamido-2-methylphenyl)-2-chloro-5-(2,2-dichloro-3-(3,5-dichlorophenyl)cyclopropane-1-carboxamido)benzamide] | A (80-100) | 50 to 100% | 50 to 100% | – | – | – |
| COCC1(C(=O)Nc2ccc(NC(=O)c3cc(NC(=O)[C@H]4[C@H](c5cc(Cl)cc(Cl)c5)C4(Cl)Cl)ccc3Cl)cc2)CC1 (relative stereo) [PF161, trans-2-Chloro-5-(2,2-dichloro-3-(3,5-dichlorophenyl)cyclopropane-1-carboxamido)-N-(4-(1-(methoxymethyl)cyclopropane-1-carboxamido)phenyl)benzamide] | A (80-100) | 50 to 100% | 50 to 100% | – | – | – |
| O=C(CC1CC1)Nc1ccc(NC(=O)c2cc(NC(=O)[C@H]3[C@H](c4cc(Cl)cc(Cl)c4)C3(Cl)Cl)ccc2Cl)cc1 (relative stereo) [PF163, trans-2-Chloro-N-(4-(2-cyclopropylacetamido)phenyl)-5-(2,2-dichloro-3-(3,5-dichlorophenyl)cyclopropane-1-carboxamido)benzamide] | A (80-100) | 50 to 100% | 50 to 100% | – | – | – |
| O=C(Nc1ccc(F)cc1)c1cc(NC(=O)[C@@H]2[C@@H](c3cc(Cl)cc(Cl)c3)C2(Cl)Cl)ccc1Cl [F166, 2-Chloro-5-((1S,3S)-2,2-dichloro-3-(3,5-dichlorophenyl)cyclopropane-1-carboxamido)-N-(4-fluorophenyl)benzamide] | – | – | – | B (More than 0-Less than 80) | 50 to 100% | 50 to 100% |
| CN(C(=O)c1cc(NC(=O)C2C(c3cc(Cl)cc(Cl)c3)C2(Cl)Br)ccc1Cl)c1ccc(F)cc1 (stereo not drawn) [F167, 5-(trans)-2-Bromo-2-chloro-3-(3,5-dichlorophenyl)cyclopropanecarboxamido)-2-chloro-N-(4-fluorophenyl)-N-methylbenzamide] | – | – | – | B (More than 0-Less than 80) | 50 to 100% | 50 to 100% |
| CN(C(=O)c1cc(NC(=O)[C@H]2[C@H](c3cc(Cl)cc(Cl)c3)C2(Cl)Cl)ccc1Cl)c1ccc(F)cc1 [F169, 2-Chloro-5-((1R,3R)-2,2-dichloro-3-(3,5-dichlorophenyl)cyclopropane-1-carboxamido)-N-(4-fluorophenyl)-N-methylbenzamide] | – | – | – | A (80-100) | 50 to 100% | 50 to 100% |
| CN(C(=O)c1cc(NC(=O)[C@@H]2[C@@H](c3cc(Cl)cc(Cl)c3)C2(Cl)Cl)ccc1Cl)c1ccc(F)cc1 [F170, 2-Chloro-5-((1S,3S)-2,2-dichloro-3-(3,5-dichlorophenyl)cyclopropane-1-carboxamido)-N-(4-fluorophenyl)-N-methylbenzamide] | – | – | – | A (80-100) | 50 to 100% | 50 to 100% |
| O=C(Nc1cc2[nH]ccc2cc1Br)c1cc(NC(=O)C2C(c3cc(Cl)cc(Cl)c3)C2(Cl)Cl)ccc1Cl (stereo not drawn) [F172, N-(5-Bromo-1H-indol-6-yl)-2-chloro-5-(trans)-2,2-dichloro-3-(3,5-dichlorophenyl)cyclopropane-1-carboxamido)benzamide] | – | – | – | B (More than 0-Less than 80) | 50 to 100% | 50 to 100% |
| O=C(Nc1cc(F)c2cc[nH]c2c1)c1cc(NC(=O)C2C(c3cc(Cl)cc(Cl)c3)C2(Cl)Cl)ccc1Cl (stereo not drawn) [F173, 2-Chloro-5-(trans)-2,2-dichloro-3-(3,5-dichlorophenyl)cyclopropane-1-carboxamido)-N-(4-fluoro-1H-indol-6-yl)benzamide] | – | – | – | B (More than 0-Less than 80) | 50 to 100% | 50 to 100% |
| O=C(Nc1ccc2cc[nH]c2n1)c1cc(NC(=O)C2C(c3cc(Cl)cc(Cl)c3)C2(Cl)Cl)ccc1Cl (stereo not drawn) [F178, 2-Chloro-5-(trans)-2,2-dichloro-3-(3,5-dichlorophenyl)cyclopropane-1-carboxamido)-N-(1H-pyrrolo[2,3-b]pyridin-6-yl)benzamide] | – | – | – | B (More than 0-Less than 80) | 50 to 100% | 50 to 100% |
| O=C(Nc1ccc(F)cc1F)c1cc(NC(=O)[C@H]2[C@H](c3cc(Cl)cc(Cl)c3)C2(Cl)Cl)ccc1Cl [F185, 2-Chloro-5-((1R,3R)-2,2-dichloro-3-(3,5-dichlorophenyl)cyclopropane-1-carboxamido)-N-(2,4-difluorophenyl)benzamide] | – | – | – | B (More than 0-Less than 80) | 50 to 100% | 50 to 100% |
| O=C(Nc1ccc(F)cc1F)c1cccc(NC(=O)C2C(c3cc(Cl)cc(Cl)c3)C2(Cl)Cl)c1 (stereo not drawn) [F186, 3-(trans)-2,2-Dichloro-3-(3,5-dichlorophenyl)cyclopropane-1-carboxamido)-N-(2,4-difluorophenyl)benzamide] | – | – | – | B (More than 0-Less than 80) | 50 to 100% | 50 to 100% |
| O=C(Nc1ccc(F)cc1F)c1cc(NC(=O)C2C(c3cc(Cl)cc(Cl)c3)C2(Cl)Br)ccc1Cl (stereo not drawn) [F187, 5-(trans)-2-Bromo-2-chloro-3-(3,5-dichlorophenyl)cyclopropane-1-carboxamido)-2-chloro-N-(2,4-difluorophenyl)benzamide] | – | – | – | A (80-100) | 50 to 100% | 50 to 100% |
| N#Cc1cc(Cl)cc(C2C(C(=O)Nc3ccc(Cl)c(C(=O)Nc4ccc(F)cc4F)c3)C2(Cl)Cl)c1 (stereo not drawn) [F188, 2-Chloro-5-(trans)-2,2-dichloro-3-(3-chloro-5-cyanophenyl)cyclopropane-1-carboxamido)-N-(2,4-difluorophenyl)benzamide] | – | – | – | B (More than 0-Less than 80) | 50 to 100% | 50 to 100% |
| O=C(Nc1ccc(F)cc1)c1cc(NC(=O)[C@@H]2[C@@H](c3ccc(Cl)c(Cl)c3)C2(Cl)Cl)ccc1Cl [F208, 2-Chloro-5-((1S,3S)-2,2-dichloro-3-(3,4-dichlorophenyl)cyclopropane-1-carboxamido)-N-(4-fluorophenyl)benzamide] | – | – | – | A (80-100) | 50 to 100% | 50 to 100% |
